The pIC50 is the negative decadic logarithm of the IC50, by convention in mol/L.

The target of data set [1] is T1, P-glycoprotein (ABCB1/MDR1) (Homo sapiens, UniProt P08183). Nature of the data set: transepithelial transport in L-MDR1 vs LLC-PK1 monolayers. It counts as cell-based.
In data set [2] the target is T1, P-glycoprotein (ABCB1/MDR1). In words: inhibition of transepithelial DRV transport in L-MDR1 monolayers. The format is cell-based.

pIC50: −log10 of the molar value.

T1 sequence (P08183 whole entry): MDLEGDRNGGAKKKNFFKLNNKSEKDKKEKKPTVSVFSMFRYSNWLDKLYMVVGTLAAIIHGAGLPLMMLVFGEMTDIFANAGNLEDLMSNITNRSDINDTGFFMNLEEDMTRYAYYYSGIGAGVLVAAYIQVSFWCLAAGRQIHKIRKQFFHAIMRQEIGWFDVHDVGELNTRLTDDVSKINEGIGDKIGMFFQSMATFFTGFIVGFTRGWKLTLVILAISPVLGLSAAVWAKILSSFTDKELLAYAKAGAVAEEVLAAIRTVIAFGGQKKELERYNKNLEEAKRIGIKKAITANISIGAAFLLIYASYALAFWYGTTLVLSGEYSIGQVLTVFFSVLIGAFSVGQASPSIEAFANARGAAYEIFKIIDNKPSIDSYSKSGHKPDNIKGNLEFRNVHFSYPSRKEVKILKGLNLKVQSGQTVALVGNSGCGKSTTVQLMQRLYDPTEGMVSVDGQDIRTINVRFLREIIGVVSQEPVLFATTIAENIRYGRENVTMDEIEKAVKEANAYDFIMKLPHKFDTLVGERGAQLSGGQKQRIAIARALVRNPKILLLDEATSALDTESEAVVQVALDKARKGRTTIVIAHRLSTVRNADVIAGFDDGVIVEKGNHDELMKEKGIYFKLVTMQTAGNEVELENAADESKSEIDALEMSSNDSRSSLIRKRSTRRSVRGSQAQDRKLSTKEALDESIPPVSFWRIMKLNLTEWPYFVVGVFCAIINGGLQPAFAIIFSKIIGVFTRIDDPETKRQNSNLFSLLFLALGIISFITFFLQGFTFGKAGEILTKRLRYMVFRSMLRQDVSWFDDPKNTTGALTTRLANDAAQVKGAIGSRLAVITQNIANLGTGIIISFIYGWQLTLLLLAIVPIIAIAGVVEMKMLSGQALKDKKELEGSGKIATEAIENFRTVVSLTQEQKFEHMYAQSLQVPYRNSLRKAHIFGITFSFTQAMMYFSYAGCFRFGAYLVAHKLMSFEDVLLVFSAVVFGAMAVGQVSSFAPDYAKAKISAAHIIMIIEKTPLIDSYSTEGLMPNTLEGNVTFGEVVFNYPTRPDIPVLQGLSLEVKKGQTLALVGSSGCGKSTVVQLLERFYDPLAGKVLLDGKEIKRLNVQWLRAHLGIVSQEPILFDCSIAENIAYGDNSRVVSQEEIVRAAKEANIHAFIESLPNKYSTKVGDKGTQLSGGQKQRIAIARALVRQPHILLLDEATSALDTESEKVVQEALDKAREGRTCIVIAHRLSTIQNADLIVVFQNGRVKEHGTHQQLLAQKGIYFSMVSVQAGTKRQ

Regarding `CC(C)CN(C[C@@H](O)[C@H](Cc1ccccc1)NC(=O)O[C@H]1CO[C@H]2OCC[C@H]21)S(=O)(=O)c1ccc(N)cc1` [DRV, Darunavir], the pIC50 in data set [1] was 3.92.
With `Cc1c(O)cccc1C(=O)N[C@@H](CSc1ccccc1)[C@H](O)CN1C[C@H]2CCCC[C@H]2C[C@H]1C(=O)NC(C)(C)C` [NFV, Nelfinavir], in data set [2], the “inhibition of transepithelial DRV transport in L-MDR1 monolayers” value was “showed NFV to have a potent inhibitory effect on P-glycoprotein-mediated transport of DRV when compared to RTV and SQV”.

The values above are taken from paper PMC6526530 (Biological & pharmaceutical bulletin, 2009).
